“And” between values parts separate entries of the source, which are not always exact repeats. Equal entries are not always repeated. “Also recorded” adds a separate entry of the source. Where two headings read alike, the source gives them in different places.
What was measured:
[1] = system: T. b. rhodesiense KETRI 2537; conditions: cited from earlier work
[2] = system: T. b. rhodesiense KETRI 2537; assay: Efficacy in KETRI vervet monkey model of second stage HAT; format: in vivo
From the text: The current study used the KETRI vervet monkey model of HAT, a model developed over 30 years ago through the experimental infection of vervet monkeys with T. b. rhodesiense. […] Trypanosomes were identified in peripheral blood first and cerebrospinal fluid (CSF) second, allowing the disease to be classified into an early (haemo-lymphatic) and a late (central nervous system [CNS]) stage, similar to the human disease. […] Monkey trypanosomal infections have been determined to be invariably fatal without therapeutic intervention, a characteristic also widely accepted as true for human sleeping sickness.
Parasitaemia and CSF parasitosis were monitored using established techniques for blood trypanosomes and CSF trypanosomes, respectively.
Due to a regulated freeze on acquisitions of new non-human primates, only six monkeys were available for the IM DB829 study. These animals were divided into three treatment groups, each consisting of one male and one female, to compare dose-responsiveness between consecutive- and alternate-day dosing. Monkeys were treated with 2.5 or 5 mg/kg/day for 5 consecutive days or with 5 mg/kg/day on alternating days for a total of 5 doses (Table 1).
Twelve additional monkeys were available for the oral DB868 efficacy study. These animals were, before infection, divided into three groups, each consisting of two males and two females. DB868 was administered orally to each group at 3, 10 or 20 mg/kg/day for 10 consecutive days (Table 2).
Parasitaemia post-infection was monitored daily, using ear-prick capillary blood, through the completion of DB868 and DB829 treatment. […] At 300 days post-LDD, monkeys were considered cured if they remained normal clinically and parasite-free in the blood and CSF. Pharmacokinetic outcomes were monitored for a minimum of 60 days post-LDD as described previously. […] Monkeys that relapsed, characterized by trypanosome recrudescence in the blood or CSF, were rescue-treated with melarsoprol.

[3] = Plasma pharmacokinetics in infected vervet monkeys (HPLC-MS/MS); format: in vivo, vervet monkey; conditions: for geometric mean plasma concentration (range) of prodrug DB868: within 1 h post-LDD
From the text: (§1) Parasitaemia post-infection was monitored daily, using ear-prick capillary blood, through the completion of DB868 and DB829 treatment. Following the last drug dose (LDD), blood and CSF samples were examined for trypanosomes at 1, 4, 7, and 14 days to determine the end of treatment (EoT) response; monkeys which were positive for trypanosomes in either blood or CSF at the end of this 14-day period were classified as treatment failures/not cured while those that were free of trypanosomes were classified as provisionally cured. After the 14-day EoT evaluations, parasitaemia examinations were continued twice weekly to ≥ 300 days post-LDD as described previously. Additionally, physical examinations and haematological assessments were carried out once weekly up to 28 days post-LDD, once every two weeks between 28 and 100 days post-LDD, and monthly thereafter until the end of the study as described previously. At 300 days post-LDD, monkeys were considered cured if they remained normal clinically and parasite-free in the blood and CSF. Pharmacokinetic outcomes were monitored for a minimum of 60 days post-LDD as described previously. To facilitate the collection of blood and CSF for these assessments, the monkeys were anaesthetised with an IM injection of ketamine HCl (10–15 mg/kg) and diazepam (0.5 mg/kg). Monkeys that relapsed, characterized by trypanosome recrudescence in the blood or CSF, were rescue-treated with melarsoprol. Melarsoprol (Mel B), supplied by the World Health Organization as a 3.6% (w/v) solution in propylene glycol, was administered intravenously at 3.6 mg/kg/day for 4 consecutive days.
Plasma samples were processed for quantification of DB868 and DB829 by high performance liquid chromatography-tandem mass spectrometry (HPLC-MS/MS) as described previously. CSF samples were processed in a manner similar to that of plasma samples.
Clinical and haematological data were analysed using Statview for Windows Version 5.0.1 (1995–1998; SAS Institute Inc., Cary, NC, USA). Repeated measures ANOVA, with Fisher’s PLSD post hoc test, was used to test the effect of trypanosome infection on haematologic parameters in comparison with respective baseline values (α = 0.05). In addition, the effects of IM DB829 and oral DB868 on these haematologic parameters in monkeys with confirmed second stage HAT were tested. Pharmacokinetic outcomes were recovered using traditional non-compartmental methods using Phoenix WinNonlin (version 6.2; Pharsight, Mountain View, CA, USA).

[4] = Tolerability of dose regimens in infected vervet monkeys; format: in vivo, vervet monkey; conditions: all IM DB829 and oral DB868 dose regimens
From the text: as §1, with “Monkeys that relapsed, characterized by trypanosome recrudescence in the blood or CSF, were rescue-treated with melarsoprol. Melarsoprol (Mel B), supplied by the World Health Organization as a 3.6% (w/v) solution in propylene glycol, was administered intravenously at 3.6 mg/kg/day for 4 consecutive days.” left out

T. b. brucei GVR35 = system: T. b. brucei GVR35; design: method as in PMID 19620327; conditions: cited from earlier work
[5] = design: method as in earlier work; conditions: cited from earlier work
African trypanosomes = system: African trypanosomes; design: method as in PMID 18722336, PMID 19620327; conditions: oral administration; cited from earlier work
T. b. rhodesiense = conditions: oral prodrug; cited from earlier work
[6] = system: human intestinal cell line (Caco-2); design: method as in PMID 12458675, PMID 15294005; conditions: cited from earlier work
[7] = all oral DB868 regimens combined
[8] = oral 10 mg/kg × 10 days, monkeys 688M, 690F, 695M, 697F, 10 mg/kg
[9] = oral 20 mg/kg × 10 days, monkeys 573F, 679F, 689M, 696M, 20 mg/kg

N=C(N)c1ccc(OCCCCCOc2ccc(C(=N)N)cc2)cc1 [pentamidine, reference compound]
cure rate when treatment initiation was delayed to 14 days post-infection ([1]; IM, monkeys, T. b. rhodesiense KETRI 2537, ref unpublished data, TRC-KARI): 0/3
cure rate in first stage disease ([1]; IM, monkeys): 2/3

Nc1nc(N)nc(Nc2ccc([As]3SCC(CO)S3)cc2)n1 (stereo not drawn) [melarsoprol, reference compound]
rescue treatment of monkeys that relapsed after DB868 ([2]; melarsoprol intravenously 3.6 mg/kg/day for 4 consecutive days, 3.6 mg/kg/day): successfully rescue-treated and 5/6

CONC(=N)c1ccc(-c2ccc(-c3ccc(C(=N)NOC)cn3)o2)nc1 [DB868, 2,5-bis[5-(N-methoxyamidino)-2-pyridyl]furan]
Final efficacy assessment at 300 days post-LDD of DB868, Overall Results (combined cure rate) [2, 7]: 2/10
Provisional efficacy at 100 days post-LDD of DB868, Overall Results [2, 7]: 4/10
Provisional efficacy at EoT, Overall Results [2, 7]: 8/10
Time to relapse ([2]; oral 3 mg/kg × 10 days, 28–37 DPI, monkey 687M): 14 days post-LDD
Cured/treated ([2]; oral 3 mg/kg × 10 days, 3 mg/kg): did not cure any monkey and did not achieve cure in any monkey and 0/2
Provisional efficacy at EoT ([2]; oral 3 mg/kg × 10 days, monkeys 670F, 687M): Not cured
drug dose after which brief period of aparasitaemia started ([2]; oral 3 mg/kg/day × 10 days, 34 DPI): 7 drug dose
Cured/treated ([2]; oral 10 mg/kg × 10 days): 1/4
Time to initial clearance of trypanosomes from body fluids (blood and CSF) ([2]; oral 10 mg/kg × 10 days, 28–37 DPI): 1 days post-LDD
Time to relapse ([2]; oral 10 mg/kg × 10 days, 28–37 DPI, individual monkeys, 10 mg/kg): 56 days post-LDD and 28 days post-LDD
Provisional efficacy at EoT ([2]; oral 10 mg/kg × 10 days, monkeys 688M, 690F, 695M, 697F): Cured
Final efficacy assessment at 300 days post-LDD of DB868 [2, 8]: R and Cured
Provisional efficacy at 100 days post-LDD of DB868 [2, 8]: R and Cured
median (range) time to relapse ([2]; oral 10 mg/kg/day × 10 days): 28 (28–56) days post-LDD
monkeys relapsed ([2]; oral 10 mg/kg/day × 10 days): 3/4
day of dosing by which monkeys became blood parasite negative ([2]; oral 10 mg/kg/day × 10 days, 34 DPI): ≤ 7 day of dosing
Cured/treated ([2]; oral 20 mg/kg × 10 days): 1/4
Time to relapse ([2]; oral 20 mg/kg × 10 days, 28–37 DPI, individual monkeys, 20 mg/kg): 161 days post-LDD and 133 days post-LDD and 77 days post-LDD
Provisional efficacy at EoT ([2]; oral 20 mg/kg × 10 days, monkeys 573F, 679F, 689M, 696M): Cured
Final efficacy assessment at 300 days post-LDD of DB868 [2, 9]: R and Cured
Provisional efficacy at 100 days post-LDD of DB868 [2, 9]: R and Cured
monkeys relapsed ([2]; oral 20 mg/kg/day × 10 days): 3/4
median (range) time to relapse ([2]; oral 20 mg/kg/day × 10 days, 20 mg/kg/day): 133 (77–161) days post-LDD and 133 days post-LDD
day of treatment by which monkeys became aparasitaemic (blood) ([2]; oral 20 mg/kg/day × 10 days, 34 DPI): ≤ 7 day of treatment
decline of prodrug DB868 plasma concentrations ([3]; oral DB868, all monkeys, post-LDD): undetectable after 8 h
geometric mean plasma concentration (range) of prodrug DB868 ([3]; oral DB868 3 mg/kg/day): 120 (100–150) nmol/L
geometric mean plasma concentration (range) of prodrug DB868 ([3]; oral DB868 10 mg/kg/day): 750 (420–1500) nmol/L
geometric mean plasma concentration (range) of prodrug DB868 ([3]; oral DB868 20 mg/kg/day): 810 (370–1300) nmol/L
tolerability of dose regimens [4]: well tolerated
efficacy in the murine model of second stage HAT (T. b. brucei GVR35): fully curative
efficacy against first stage HAT in monkeys ([1]; oral): highly active; also recorded: fully curative
tolerability in monkeys, first stage HAT study ([1]; oral): well-tolerated
tolerability in rats [5]: better tolerated than pafuramidine

CONC(=N)c1ccc(-c2ccc(-c3ccc(C(=N)NOC)cc3)o2)cc1 [pafuramidine, 2,5-bis (4-amidinophenyl)-furan-bis-O-methlylamidoxime]
efficacy in murine models of first and second stage HAT (African trypanosomes): fully curative
efficacy against first stage HAT in monkeys ([1]; oral administration): fully curative
cure rate against second stage HAT in non-human primates (T. b. rhodesiense): 0/3
absorptive permeability compared with the active diamidine furamidine (DB75) [6]: improved absorptive permeability

CON=C(N)c1ccc(-c2ccc(-c3ccc(C(N)=NOC)cn3)o2)cc1 [DB844]
efficacy in murine models of first and second stage HAT (African trypanosomes): fully curative
cure rate against second stage HAT in non-human primates (T. b. rhodesiense): 3/7

Reference: article PMC4318582, “Chemotherapy of Second Stage Human African Trypanosomiasis: Comparison between the Parenteral Diamidine DB829 and Its Oral Prodrug DB868 in Vervet Monkeys” (PLoS Neglected Tropical Diseases, 2015)
